The text below walks through data of US11357873B2, “Chiral cyclen compounds and their uses” (THE HONG KONG POLYTECHNIC UNIVERSITY, priority 2016, dated 2022).

Molecules are shown by their SMILES. Marks after values point to notes of the source that are not given here.

What all share (type): physicochemical
Data set [1] is described as follows: Circularly polarized luminescence (CPL), dissymmetry factor glum. The conditions noted are these: DMSO; wavelength in parentheses in the cell. As to the method:
(§1) Steady-state room temperature photoluminescence measurements were performed with an Edinburgh Instrument FLSP920 spectrophotometer equipped with a Xe900 continuous xenon lamp, μF920 microsecond flash lamp and a single photon counting photomultiplier tube. Spectra were corrected with the bundled F900 software. Solution-state measurements were conducted using quartz curettes of 10 mm path length. CPL measurements were conducted on a custom built spectrometer^63 (in Durham University) consisting of a laser driven light source (Energetiq EQ-99 LDLS, spectral range 170 to 2100 nm) coupled to an Acton SP2150 monochromator (600 g/nm, 300 nm Blaze) that allows excitation wavelengths to be selected with a 6 nm FWHM band-pass. The collection of the emitted light was facilitated (90° angle set up, 1 cm path length quartz curette) by a Lock-In Amplifier (Hinds Instruments Signaloc 2100) and Photoelastic Modulator (Hinds Instruments PEM-90). The differentiated light was focused onto an Acton SP2150 monochromator (1200 g/nm, 500 nm Blaze) equipped with a high sensitivity cooled Photo Multiplier Tube (H10723-20 Extended red-multialkali PMT based photosensor (5V)). Spectra were recorded using a 5 spectral average sequence in the range of 570-720 nm with 0.5 nm spectral intervals and 500 μs integration time.

Data set [2] is described as follows: Absorption and photoluminescence (quantum yield, lifetime, q). Details: λabs(max): unit not given here. The settings on record: for R, I(5D0 → 7F2)/I(5D0 → 7F1): asymmetry ratio, 10 in MeOH; for R, I(5D0 → 7F2)/I(5D0 → 7F1) / λabs(max): room temperature, 11 in DMSO; for ΦDMSO (%): luminescence quantum yield in DMSO; for λabs(max): 10 measured in MeOH. As to the method:
as §1, with “Absorption spectra of complexes were measured with HP UV-8453 spectrophotometer. Steady-state” for “Steady-state”, “time. The recorded CPL spectrum underwent a 25% Fourier transformation smoothening protocol using Origin 8.0 Software (Origin Labs) to enhance appearance (all calculations were carried out using raw spectral data).” for “time.”
The shift in absorption is caused by electronic communication between the electropositive lanthanide center and the chromophore. […] These are not observed for 11, however, as we believe the steric effect of the planar phenyl ring of the benzyl group could not be alleviated by appropriate rotation, whereas that of the isobutyl group could.
The luminescence quantum yields of the complexes are decent in water and HEPES solution, although they are much higher in DMSO, due to the nonradiative quenching by O—H oscillators of water molecules in the second coordination sphere (Table 6). The intrinsic quantum yields^61—a calculated value evaluating the quantum yield of Eu(III) via direct metal excitation—of the complexes are calculated, and, as expected, the values are very similar, except for 10. The higher value corroborates with the shift in absorption maximum, for which we believe the reason is due to a shorter europium—chromophore distance and better interaction. On the other hand, the sensitization efficiencies of the complexes vary. […] The relatively remarkable ηsens of 13 is attributed to its structural rigidity, as both the tetraaza backbone and the acetate arms are modified with a chrial substituent, i.e., double chirality. The double chirality is also attributed for the increase in luminescence quantum yield compared to that of 12a/12b.

The nature of data set [3]: Water solubility of complexes.
Data set [4] can be described thus: Rate of complexation of ligands with metal salts under mild (radiolabeling) conditions. The settings on record: pD 6.0-7.0, 50° C., 1H NMR titration.

`COc1cc(OC)c(C#Cc2cc(CN3C[C@H](CC(C)C)N(CC(=O)[O-])C[C@H](CC(C)C)N(CC(=O)[O-])C[C@H](CC(C)C)N(CC(=O)[O-])C[C@@H]3CC(C)C)nc(P(C)(=O)[O-])c2)c(OC)c1.[Eu+3]` [Complex 10]: in data set [1], the “glum ΔJ = 1 (λ) DMSO” value is listed as −0.11 (591) and the “glum ΔJ = 3 (λ) DMSO” value is on record as −0.12 (657). In addition, in data set [2], the “R, I(5D0 → 7F2)/I(5D0 → 7F1)” value was found to be 3.01; the “ΦDMSO (%)” value stood at 45.3%; the “λabs(max)” value worked out at 364. Also, the “q (calculated from ref 60)” value in data set [2] (from lifetimes in MeOH and MeOD) is reported as 0.05^g. Moreover, the “ΦEuEu (%)” value in data set [2] (intrinsic quantum yield, calculated value) was 36.9%. In addition, in data set [2] (luminescence lifetime, 5D0 → 7F2 transition, D2O (MeOD for 10)), the “τD2O/MeOD” value was found to be 1.74 ms. Also, the “τH2O/MeOH” value in data set [2] (luminescence lifetime, 5D0 → 7F2 transition, H2O (MeOH for 10)) stood at 1.39 ms. Also, the “ΦH2O/MeOH (%)” value in data set [2] (luminescence quantum yield relative to quinine sulfate in 0.1M H2SO4, H2O (MeOH for 10, insoluble in H2O)) amounted to 11.1%. For the same compound, the “ηsens (%)” value in data set [2] (sensitization efficiency, calculated according to ref 61) is listed as 30.1%. In data set [3], the water solubility result was “poor water solubility”.

Consider `COc1cc(OC)c(C#Cc2cc(CN3CC(Cc4ccccc4)N(CC(=O)[O-])CC(Cc4ccccc4)N(CC(=O)[O-])CC(Cc4ccccc4)N(CC(=O)[O-])CC3Cc3ccccc3)nc(P(C)(=O)[O-])c2)c(OC)c1.[Eu+3]` (stereo not drawn) [Complex 11], for which the “glum ΔJ = 3 (λ) DMSO” value in data set [1] is “+0.25 (657)”. Moreover, in data set [2], the “R, I(5D0 → 7F2)/I(5D0 → 7F1)” value was found to be 2.69; the “ΦDMSO (%)” value is given as 40.4%; the “λabs(max)” value is reported as 354. Also, the water solubility entry in data set [3] was “poor water solubility”.

`CC[C@H]1CN(CC(=O)O)[C@@H](CC)CN(CC(=O)O)[C@@H](CC)CN(CC(=O)O)[C@@H](CC)CN1CC(=O)O` [Complex L2, 2,2′,2″,2′″-((2S,5S,8S,11S)-2,5,8,11-tetraethyl-1,4,7,10-tetraazacyclododecane-1,4,7,10-tetrayl)tetraacetic acid]: the “time to complete complexation with Eu(OTf)3” value in data set [4] is ≤ 5 min.
